Data from publication PMC8958504 (Journal of Medicinal Chemistry, 2022).
Where “and” joins values, the source holds several entries; their conditions need not be identical. Equal entries are not always repeated. Where two headings read alike, the source gives them in different places.

Experiments:
[1] = Oxygen radical absorbance capacity (ORAC-FL) assay; conditions: trolox = 1.0
Description: 2,2′-Azobis-(amidinopropane) dihydrochloride (AAPH), trolox, and fluorescein (FL) were purchased from Sigma-Aldrich. The reaction was carried out in a 75 mM phosphate buffer (pH 7.4), and the final reaction mixture was 200 μL. […] Antioxidant curves (fluorescence vs time) were first normalized to the curve of the blank corresponding to the same assay, and the area under the curve (AUC) of fluorescence decay was calculated. The net AUC corresponding to a sample was calculated by subtracting the AUC corresponding to the blank. Regression equations between the net AUC and antioxidant concentration were calculated for all the samples.

[2] = system: NRF2-ARE signaling pathway; test: cells; type: cell-based; conditions: for EC (2-fold induction): Arec32, 24 h, read-out: NRF2 (CD, μM), concentration required to double luciferase activity, AREc32 cells, 24 h; for NRF2 (CD, μM): concentration required to double luciferase activity, AREc32 cells, 24 h
Description: AREc32 cells were plated in 96-well white plates (2 × 10^4 cells/well). […]. The AREc32 cells constitutively express the plasmid pGL-8xARE that implements eight copies of the EpRE sequences, followed by the luciferase reporter gene. Therefore, NRF2 induction is related to the activation of EpRE sequences, expressing luciferase at the same extent as EpRE sequences are activated. The Luciferase Assay System (Promega E1500) was used according to the provider’s protocol, and luminescence was quantified in an Orion II microplate luminometer (Berthold, Germany). Fold induction of luciferase activity was normalized to basal conditions. Data are expressed as CD values, expressing the concentration required to double the luciferase activity. CD values were calculated from dose–response curves generated from the fold induction of control conditions versus inducer concentration and fitted by nonlinear regression and data interpolated to twofold induction concentration.[68]

[3] = in vitro; type: in vitro ADME; conditions: for Papp at 240 min, 100 μg mL^–1: PAMPA; for PAMPA-BBB (Pe, 10^–6 cm s^–1): porcine brain lipid
[4] = molecular target: T1, hMAO-B (Homo sapiens, UniProt P27338); test: biochemical; conditions: for IC50: read-out: hMAO-B (IC50), recombinant hMAO-B, p-tyramine substrate; for inhibition at 50 µM: read-out: hMAO-B percentage of inhibition (in brackets)
T1 sequence (P27338 1-520): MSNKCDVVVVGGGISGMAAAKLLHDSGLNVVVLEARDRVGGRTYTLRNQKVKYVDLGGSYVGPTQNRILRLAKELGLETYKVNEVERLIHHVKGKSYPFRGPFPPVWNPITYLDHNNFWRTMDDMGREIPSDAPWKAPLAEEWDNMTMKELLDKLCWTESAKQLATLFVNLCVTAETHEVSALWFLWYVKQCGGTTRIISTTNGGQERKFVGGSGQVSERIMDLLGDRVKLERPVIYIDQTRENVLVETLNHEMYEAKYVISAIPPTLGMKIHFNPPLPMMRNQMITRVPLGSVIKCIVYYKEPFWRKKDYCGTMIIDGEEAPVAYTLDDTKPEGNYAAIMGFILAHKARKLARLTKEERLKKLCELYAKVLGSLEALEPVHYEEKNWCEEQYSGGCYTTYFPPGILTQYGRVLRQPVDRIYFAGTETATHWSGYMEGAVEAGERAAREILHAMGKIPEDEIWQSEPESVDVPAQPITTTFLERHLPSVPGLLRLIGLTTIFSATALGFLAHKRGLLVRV
Description: (§1) The hMAO-A/B inhibition of all compounds was determined using the Amplex Red MAO assay kit.
(§2) Assays were performed following the general procedure previously described.[98] […] The specific fluorescence emission was calculated after subtracting the background activity, which was determined from wells containing all components except the hMAO isoforms, which were replaced with PBS.

[5] = molecular target: T2, hMAO-A (Homo sapiens, UniProt P21397); test: biochemical; conditions: for IC50: read-out: hMAO-A (IC50), recombinant hMAO-A, p-tyramine substrate
T2 sequence (P21397 1-527): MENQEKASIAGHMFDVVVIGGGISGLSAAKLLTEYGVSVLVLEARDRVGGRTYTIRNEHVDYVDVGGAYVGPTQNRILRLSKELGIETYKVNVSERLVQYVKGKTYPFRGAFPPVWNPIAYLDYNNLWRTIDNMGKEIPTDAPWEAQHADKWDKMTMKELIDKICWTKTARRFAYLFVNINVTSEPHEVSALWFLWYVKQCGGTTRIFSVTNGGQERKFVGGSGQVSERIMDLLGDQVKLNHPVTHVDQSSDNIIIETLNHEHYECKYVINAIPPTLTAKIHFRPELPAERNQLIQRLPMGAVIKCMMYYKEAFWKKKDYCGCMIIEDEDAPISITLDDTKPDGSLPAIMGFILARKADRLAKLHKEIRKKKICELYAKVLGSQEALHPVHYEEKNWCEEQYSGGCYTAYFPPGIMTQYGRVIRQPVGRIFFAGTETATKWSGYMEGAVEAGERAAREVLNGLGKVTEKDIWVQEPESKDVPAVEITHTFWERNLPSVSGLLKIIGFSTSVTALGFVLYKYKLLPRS
Description: as §1, §2

[6] = molecular target: T3, QR2 (Mesocricetus auratus, UniProt A0ABM2YAB8); test: biochemical
T3 sequence (A0ABM2YAB8 1-231): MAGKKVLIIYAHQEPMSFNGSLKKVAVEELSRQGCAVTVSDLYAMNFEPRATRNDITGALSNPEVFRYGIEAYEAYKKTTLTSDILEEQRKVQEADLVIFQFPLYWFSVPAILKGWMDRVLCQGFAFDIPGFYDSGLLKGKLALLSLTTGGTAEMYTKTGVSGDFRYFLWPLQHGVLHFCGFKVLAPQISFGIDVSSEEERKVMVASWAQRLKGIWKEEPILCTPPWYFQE
Description: The QR2 experiments were performed in membrane homogenates of hamster brains (https://www.eurofins.fr, catalog ref. 0088). […] First, radioligand displacement was measured at a fixed compound concentration (10 μM) in each receptor.

[7] = pH 7.4, class from PAMPA-BBB Pe, read-out: CNS-permeability prediction
[8] = PBS/EtOH (70:30), 240 min, 25 °C

Row | Structure (SMILES) | ORAC (trolox equiv) [1] [trolox equiv] | EC (2-fold induction) [2] [µM] | Papp at 240 min, 100 μg mL^–1 [3, 7] [×10⁻⁶ cm/s] | PAMPA-BBB (Pe, 10^–6 cm s^–1) [3, 8] | IC50 [4] [µM] | IC50 [5] [µM] | NRF2 (CD, μM) [2] [µM] | IC50 [6] [µM] | Papp at 240 min, 100 μg mL^–1 ([3]; pH 7.4, PAMPA standards, mean ± SD of three experiments, read-out: Permeability Pe, Exp) [×10⁻⁶ cm/s] | inhibition at 50 µM [4] [%] | Papp at 240 min, 100 μg mL^–1 ([3]; pH 7.4, porcine brain lipid, PBS/EtOH (70:30), 240 min, 25 °C, read-out: PAMPA-BBB) [×10⁻⁶ cm/s] | inhibition at 50 µM ([5]; read-out: hMAO-A percentage of inhibition (in brackets)) [%]
1 | COc1ccc(/C=C/c2n[nH]c(=O)o2)cc1OC [2h, 5-[(E)-2-(3,4-Dimethoxyphenyl)ethenyl]-1,3,4-oxadiazol-2(3H)-one] | <0.1 | > 60 | 2 to 4 | 2.4 ± 0.3 10^–6 cm s^–1 | > 50 | > 50 |  |  |  |  |  | 
2 | C#CCNC(=O)/C=C/c1ccc(O)cc1 [6m, (2E)-3-(4-Hydroxyphenyl)-N-(prop-2-yn-1-yl)prop-2-enamide] | 3.0 ± 0.2 |  |  |  | 31.1 ± 1.57 | > 50 |  |  |  |  |  | 
3 | C#CCn1nc(/C=C/c2cccc(O)c2)oc1=O [5l, 5-[(E)-2-(3-Hydroxyphenyl)ethenyl]-3-(prop-2-yn-1-yl)-1,3,4-oxadiazol-2(3H)-one] | 2.7 ± 0.2 |  | > 4 | 4.7 10^–6 cm s^–1 and 4.7 ± 0.2 10^–6 cm s^–1 | 3.53 ± 0.15 | > 50 | 8.05 ± 1.41 | 2.5 ± 0.12 |  |  |  | 
4 | C#CCNC(=O)/C=C/c1cccc(C#N)c1 [6b, (2E)-3-(3-Cyanophenyl)-N-(prop-2-yn-1-yl)prop-2-enamide] | <0.1 | > 60 |  |  | > 50 | > 50 |  |  |  |  |  | 
5 | C#CCNC(=O)/C=C/c1cccc(O)c1 [6l, (2E)-3-(3-Hydroxyphenyl)-N-(prop-2-yn-1-yl)prop-2-enamide] | 3.0 ± 0.3 |  |  |  | > 50 | > 50 |  |  |  |  |  | 
6 | O=c1[nH]nc(/C=C/c2cc(O)cc(O)c2)o1 [3p, 5-[(E)-2-(3,5-Dihydroxyphenyl)ethenyl]-1,3,4-oxadiazol-2(3H)-one] | 1.9 ± 0.1 | > 60 | < 2 | ≤ 0.1 10^–6 cm s^–1 | > 50 | > 50 |  |  |  |  |  | 
7 | C[C@]12CCC(=O)C=C1CC[C@@H]1[C@@H]2[C@@H](O)C[C@]2(C=O)[C@@H](C(=O)CO)CC[C@@H]12 [Aldosterone, reference compound] |  |  |  |  |  |  |  |  | 3.1 ± 0.2 |  |  | 
8 | COc1cc(/C=C/c2n[nH]c(=O)o2)cc(OC)c1 [2j, 5-[(E)-2-(3,5-Dimethoxyphenyl)ethenyl]-1,3,4-oxadiazol-2(3H)-one] | <0.1 |  | 2 to 4 | 2.1 ± 0.2 10^–6 cm s^–1 | > 50 | > 50 |  | 0.51 ± 0.05 |  |  |  | 
9 | N#Cc1cccc(/C=C/c2n[nH]c(=O)o2)c1 [2b, 3-[(E)-2-(5-Oxo-4,5-dihydro-1,3,4-oxadiazol-2-yl)ethenyl]benzonitrile] | <0.1 | 13.7 | > 4 | 4.5 ± 0.3 10^–6 cm s^–1 | > 50 | > 50 | 13.7 ± 2.2 |  |  | 38 |  | 
10 | C#CCNC(=O)/C=C/c1ccc(O)c(OC)c1 [6n, (2E)-3-(4-Hydroxy-3-methoxyphenyl)-N-(prop-2-yn-1-yl)prop-2-enamide] | 0.5 ± 0.03 | > 60 | < 2 | ≤ 0.5 10^–6 cm s^–1 | > 50 | > 50 | >60 |  |  | 33 | < 2 | 33
11 | O=c1[nH]nc(/C=C/c2ccc(O)c(O)c2)o1 [3o, 5-[(E)-2-(3,4-Dihydroxyphenyl)ethenyl]-1,3,4-oxadiazol-2(3H)-one] | 1.7 ± 0.1 |  | < 2 | ≤ 0.2 10^–6 cm s^–1 | 5.8 ± 0.4 | 3.4 ± 0.2 | 21.3 ± 1.6 |  |  |  |  | 
12 | COc1ccc(OC)c(/C=C/c2n[nH]c(=O)o2)c1 [2g, 5-[(E)-2-(2,5-Dimethoxyphenyl)ethenyl]-1,3,4-oxadiazol-2(3H)-one] | <0.1 |  | 2 to 4 | 3.0 ± 0.2 10^–6 cm s^–1 | > 50 | > 50 |  |  |  |  |  | 
13 | O=c1[nH]nc(/C=C/c2ccc3c(c2)OCO3)o1 [2i, 5-[(E)-2-(2H-1,3-Benzodioxol-5-yl)ethenyl]-1,3,4-oxadiazol-2(3H)-one] | <0.1 |  | 2 to 4 | 3.8 ± 0.2 10^–6 cm s^–1 | 27.6 ± 0.9 | > 50 |  |  |  |  |  | 
14 | COc1ccc(/C=C/c2n[nH]c(=O)o2)c(OC)c1 [2f, 5-[(E)-2-(2,4-Dimethoxyphenyl)ethenyl]-1,3,4-oxadiazol-2(3H)-one] | 0.6 ± 0.08 |  | 2 to 4 | 3.6 ± 0.2 10^–6 cm s^–1 | > 50 | > 50 |  |  |  |  |  | 
15 | C#CCNC(=O)/C=C/c1ccc(OC)cc1 [6e, (2E)-3-(4-Methoxyphenyl)-N-(prop-2-yn-1-yl)prop-2-enamide] | <0.1 |  |  |  | > 50 | > 50 |  |  |  |  |  | 
16 | COc1ccc2[nH]cc(CCNC(C)=O)c2c1 [melatonin, reference compound] |  |  |  |  |  |  |  | 0.077 ± 0.001 |  |  |  | 
17 | COc1cc(/C=C/c2n[nH]c(=O)o2)cc(OC)c1OC [2k, 5-[(E)-2-(3,4,5-Trimethoxyphenyl)ethenyl]-1,3,4-oxadiazol-2(3H)-one] | <0.1 |  | < 2 | ≤ 0.5 10^–6 cm s^–1 | > 50 | > 50 |  |  |  |  |  | 
18 | C[S+]([O-])CCCCN=C=S (centres unmarked) [sulforaphane, reference compound] |  | 1.24 |  |  |  |  | 1.24 ± 0.28 |  |  |  |  | 
